Laboratory results reported in US20240210394A1, “MICROORGANISM CAPTURE FROM ANTIMICROBIAL-CONTAINING SOLUTION” (MOMENTUM BIOSCIENCE LIMITED, priority 2019, published 2024).

How the values were obtained:
S. pneumoniae = assay: Blood culture time to positivity (flip time), bead rescue vs no-rescue control; assay type: cell-based; settings: for Flip time: Bead rescue; for Flip time / Flip time in Days: 12600 cfu/5 ml blood; for Flip time in Days: Control (FA plus bottle); for Bead Rescue Flip time / Control Flip time in Days: antibiotic 1 mg/L blood
Protocol: (§1) Day 1: Prepare overnight culture of test organism in blood/broth medium (50:50 blood:broth) and incubate at 37° C. (or 30° C. for C. neoformans) in a shaking incubator.
(§2) (or 30° C. for C. neoformans) for 2 h for outgrowth. • Antibiotic added to whole blood (defibrinated horse blood) at required level • Whole blood as no-antibiotic control • Test dilution(s) of organism added to blood+antibiotic or blood only at 10 μL per mL of blood (sufficient prepared for experiment requirements) • 100 μL plate count sample taken (TO sample) • 2-hour incubation (static) at 37° C. (or 30° C. for C. neoformans) • 100 μL plate count sample taken (T2 sample) • 5 mL of spiked blood+abx or blood only added to blood culture bottle (using vial adapter) and incubation started (adapter removed) • 5 mL of spiked blood+abx or blood only (from same source) treated with Momentum Capture Beads as below: • 1. Capture Beads diluted in the relevant Capture Reagent—50 μL beads:700 μL capture reagent per clean-up • 2. 750 μL of diluted beads added to 50 mL conical centrifuge tube • 3. 5 mL of transfer medium added to tube • 4. 5 mL of spiked blood+abx or blood only added to tube • 5. Incubate on ITL TherMix (32.5° C./30 min/1000 rpm—ramped speed protocol) • 6. Magnetise on V&P magnet for 10 min then remove supernatant • 7. Resuspend beads in 1 mL Detergent-free Wash Buffer (DWB) off magnet and transfer to 2 mL Eppendorf flip-top tube on DynaMag-2 magnet • 8. Magnetise for 3 min then remove supernatant • 9. Resuspend beads in 1 mL Detergent-free Wash Buffer (DWB) off magnet then replace on DynaMag-2 magnet • 10. Magnetise for 3 min then remove supernatant • 11. Resuspend beads in 1 mL DWB, add to new blood culture bottle (using vial adapter) and start incubation (adapter removed)
(§3) Record the “Flip” time of each bottle or bottle result at the end of 5 days incubation. The “Flip” time is when a bottle turns positive as determined by the automated blood culture cabinet, which records time to positivity.
(§4) Day 1: Prepare overnight culture of test organism in blood/broth medium (50:50 blood:broth) and incubate at 37° C. in a shaking incubator.
(§5) Momentum Capture Beads diluted in the relevant Capture Reagent—50 μL beads:700 μL capture reagent per clean-up • 2. 750 μL of diluted beads added to 50 mL conical centrifuge tube • 3. 5 mL of transfer medium added to tube • 4. 5 mL of spiked blood+abx or blood only added to tube • 5. Incubate on ITL TherMix (32.5° C./30 min/1000 rpm—ramped speed protocol) • 6. Magnetise on V&P magnet for 10 min then remove supernatant • 7. Resuspend beads in 1 mL Detergent-free Wash Buffer (DWB) off magnet and transfer to 2 mL Eppendorf flip-top tube on DynaMag-2 magnet • 8. Magnetise for 3 min then remove supernatant • 9. Resuspend beads in 1 mL Detergent-free Wash Buffer (DWB) off magnet then replace on DynaMag-2 magnet • 10. Magnetise for 3 min then remove supernatant • 11. Resuspend beads in 1 mL DWB, add to an unused blood culture bottle (BioMerieux FA+culture bottle) using vial adapter and start incubation (adapter removed)
To compare organism capture and rescue from FA plus bottles, on S. pneumoniae in Ceftriaxone. Reproduce experiment by Flayhart et al. 2007 testing antibiotic concentrations of 250, 125 and 94 mg/L and also include concentrations of 50 and 10 mg/L.
In the table below, “control” represents samples processed using FA plus bottles (also referred to as “BC” in the final column) and “bead rescue” refers to samples processed according to the methods of the invention.

E. coli [1] = assay: as above; assay type: cell-based; settings: for Bead Rescue Flip time / Control Flip time in Days: antibiotic 0.075 mg/L blood; for Flip time: Bead rescue
Protocol: as §4
Day 2: Prepare ten-fold serial dilution of overnight culture in blood/broth as required and incubate at 37° C. for 2 h for outgrowth.
Add 5 mL of spiked blood+beads (set 1) and 5 mL of spiked blood/Abx+beads (set 3) to blood culture bottles (BioMerieux SA culture bottle) using a vial adapter (West Pharmaceutical Services, Inc. PA, US).
Remove the adaptor and incubate the blood culture bottles in the automated blood culture cabinet (BacT/ALERT BioMerieux) for up to 5 days.
as §3, §1
as §2, with “Incubate on ITL TherMix (32.5° C./30 min/1000 rpm—ramped speed protocol) • 6.” left out
as §5, with “Incubate on ITL TherMix (32.5° C./30 min/1000 rpm—ramped speed protocol) • 6.” left out

Cryptococcus neoformans = assay: as above; assay type: cell-based; settings: antibiotic 2 mg/L blood; 102200 cfu/5 mL Blood
Protocol: (§6) Day 1: […] (or 30° C. for C. neoformans) in a shaking incubator. Day 2: […] (or 30° C. for C. neoformans) for 2 h for outgrowth. • Antibiotic added to whole blood (defibrinated horse blood) at required level • Whole blood as no-antibiotic control • Test dilution(s) of organism added to blood+antibiotic or blood only at 10 μL per mL of blood (sufficient prepared for experiment requirements) • 100 μL plate count sample taken (TO sample) • 2-hour incubation (static) at 37° C. […] […] on V&P magnet for 10 min then remove supernatant • 7. […] […] for 3 min then remove supernatant • 9. Resuspend beads in 1 mL Detergent-free Wash Buffer (DWB) off magnet then replace on DynaMag-2 magnet • 10. […] for 3 min then remove supernatant • 11. Resuspend beads in 1 mL DWB, add to new blood culture bottle (using vial adapter) and start incubation (adapter removed) […] The “Flip” time is when a bottle turns positive as determined by the automated blood culture cabinet, which records time to positivity.

Candida albicans = assay: as above; assay type: cell-based; settings: 4000 cfu/5 mL Blood
Protocol: as §6

E. coli [2] = settings: cited from earlier work

## CO/N=C(\C(=O)N[C@@H]1C(=O)N2C(C(=O)O)=C(CSc3nc(=O)c(=O)[nH]n3C)CS[C@H]12)c1csc(N)n1 [Ceftriaxone]
S. pneumoniae; Ceftriaxone 10 mg/L blood
  Flip time: 0.46 days
  Flip time in Days: Neg
S. pneumoniae; Ceftriaxone 50 mg/L blood
  Flip time: 0.47 days
  Flip time in Days: Neg
S. pneumoniae; Ceftriaxone 94 mg/L blood
  Flip time: 0.52 days
  Flip time in Days: Neg
S. pneumoniae; Ceftriaxone 125 mg/L blood
  Flip time: 0.49 days
  Flip time in Days: Neg
S. pneumoniae; Ceftriaxone 250 mg/L blood
  Flip time: 0.51 days
  Flip time in Days: Neg

## O=C(O)c1cn(C2CC2)c2cc(N3CCNCC3)c(F)cc2c1=O [Ciprofloxacin]
E. coli [1]; Ciprofloxacin 0.075 mg/L blood, 11400 Cfu/mL (first set, r5-r10), bead rescue with named bead type, antibiotic-labelled line = BC control without beads
  Flip time In Days: Negative
E. coli [1]; Ciprofloxacin 0.075 mg/L blood, 11400 Cfu/mL (second set, r11-r16), bead rescue with named bead type, antibiotic-labelled line = BC control without beads
  Flip time In Days: Negative
E. coli [1]; Ciprofloxacin 0.075 mg/L blood, 380800 Cfu/mL (some rows print 360800), antibiotic-labelled line = BC control without beads
  Difference (Days) compared to BE: Negative
E. coli [1]; Ciprofloxacin 0.075 mg/L blood, 380800 Cfu/mL (some rows print 360800), bead rescue with named bead type, antibiotic-labelled line = BC control without beads
  Flip time in Days: Negative
E. coli [1]; Ciprofloxacin 0.075 mg/l blood, 11400 Cfu/mL (first set, r5-r10), antibiotic-labelled line = BC control without beads
  Difference (Days) compared to BE: Negative
E. coli [1]; Ciprofloxacin 0.075 mg/l blood, 11400 Cfu/mL (second set, r11-r16), antibiotic-labelled line = BC control without beads
  Difference (Days) compared to BE: Negative
E. coli [1]; Example 23, E. coli in blood containing 0.075 mg/L Ciprofloxacin
  No-rescue blood culture control result: negative after 5 days
E. coli [1]; Example 24, E. coli in blood containing 0.075 mg/L Ciprofloxacin
  Blood culture controls (no bead rescue) result: negative
E. coli [1]; 100000 cfu/5 mL Blood
  Bead Rescue Flip time: 0.68 days
  Control Flip time in Days: Neg
E. coli [1]; 1000000 cfu/5 mL Blood
  Bead Rescue Flip time: 0.61 days
  Control Flip time in Days: Neg

## CO/N=C(\C(=O)N[C@@H]1C(=O)N2C(C(=O)O)=C(CSc3nc(=O)c(O)nn3C)CS[C@H]12)c1csc(N)n1 [Celtriaxone]
S. pneumoniae; 200 cfu/5 mL Blood
  Bead Rescue Flip time: 0.86 days
  Control Flip time in Days: Neg
S. pneumoniae; 10000 cfu/5 mL Blood
  Bead Rescue Flip time: 0.71 days
  Control Flip time in Days: Neg
S. pneumoniae; 100000 cfu/5 mL Blood
  Bead Rescue Flip time: 0.68 days
  Control Flip time in Days: Neg

## C[C@@H]1[C@H](O)[C@@H](C)/C=C/C=C/C=C/C=C/C=C/C=C/C=C/[C@H](O[C@@H]2O[C@H](C)[C@@H](O)[C@H](N)[C@@H]2O)C[C@@H]2O[C@](O)(C[C@@H](O)C[C@@H](O)[C@H](O)CC[C@@H](O)C[C@@H](O)CC(=O)O[C@H]1C)C[C@H](O)[C@H]2C(=O)O [Amphoteracin B]
Cryptococcus neoformans
  Bead Rescue Flip time: 3.14 days
  Control Flip time: 3.7 days
Candida albicans; antibiotic 1 mg/L blood
  Bead Rescue Flip time: 1.27 days
  Control Flip time: 2.22 days
Candida albicans; antibiotic 2 mg/L blood
  Bead Rescue Flip time: 1.85 days
  Control Flip time: 2.98 days

## CO/N=C(\C(=O)N[C@@H]1C(=O)N2C(C(=O)O)=C(COC(C)=O)CS[C@H]12)c1csc(N)n1 [Cefotaxime]
E. coli [1]; Cefotaxime 100 mg/L blood, 50800 cfu/5 mL blood
  Flip time: 0.39 days
E. coli [1]; Cefotaxime 100 mg/L blood, 508000 cfu/5 mL blood
  Flip time: 0.31 days
E. coli [1]; Control (FA plus bottle), Cefotaxime 100 mg/L blood, 50800 cfu/5 mL blood
  Flip time in Days: Neg
E. coli [1]; Control (FA plus bottle), Cefotaxime 100 mg/L blood, 508000 cfu/5 mL blood
  Flip time in Days: Neg
E. coli [2]
  MIC: ≤1 µg/mL
